Test results published in ChEMBL document CHEMBL1201862, “PubChem BioAssay data set” (2004).
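Exposure lasted 48 hours, with cells grown in 96-well plates and compounds tested at five concentrations. GI50 is the concentration that inhibits growth by half.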 Activity calls are given as the source filed them. No stated cut-off is given here; in the data, active = GI50 up to about 1.1 µM and inactive = higher.

How the values were obtained:
Test in all cases: DTP human tumour cell line panel, 48 h
HT-29 = tested on: HT-29
HCT-15 = tested on: HCT-15
SNB-19 = tested on: SNB-19
DU-145 = tested on: DU-145
Malme-3M = tested on: Malme-3M
SK-OV-3 = tested on: SK-OV-3
OVCAR-4 = tested on: OVCAR-4
A549 = tested on: A549
BT-549 = tested on: BT-549
SR = tested on: SR
UACC-62 = tested on: UACC-62
NCI-H522 = tested on: NCI-H522
RPMI-8226 = tested on: RPMI-8226
UO-31 = tested on: UO-31
MCF7 = tested on: MCF7
HCC 2998 = tested on: HCC 2998
NCI-H460 = tested on: NCI-H460
SN12C = tested on: SN12C
786-0 = tested on: 786-0
HOP-92 = tested on: HOP-92

Row | Structure (SMILES) | GI50 (HT-29) | GI50 (HCT-15) [µM] | GI50 (SNB-19) | GI50 (DU-145) | GI50 (Malme-3M) | GI50 (SK-OV-3) | GI50 (OVCAR-4) | GI50 (A549) | GI50 (BT-549) | GI50 (SR) | GI50 (UACC-62) | GI50 (NCI-H522) | GI50 (RPMI-8226) | GI50 (UO-31) | GI50 (MCF7) | GI50 (HCC 2998) | GI50 (NCI-H460) | GI50 (SN12C) | GI50 (786-0) | GI50 (HOP-92)
1 | Cc1cc2c(c(S(=O)(=O)c3ccccc3[N+](=O)[O-])c1)NCCC2 | > 100 µM (inactive) | 33.7 | > 100 µM (inactive) | 77.1 µM (inactive) | 44.8 µM (inactive) | > 100 µM (inactive) | 23.5 µM (inactive) | 40.3 µM (inactive) | 19.1 µM (inactive) | > 100 µM (inactive) | 17.8 µM (inactive) | 16.1 µM (inactive) | 85.3 µM (inactive) | 37.4 µM (inactive) | 58.6 µM (inactive) | 91.2 µM (inactive) | 66.7 µM (inactive) | 76.4 µM (inactive) | > 100 µM (inactive) | –
2 | NC(=S)N/N=C1\NC(=O)/C(=C/c2ccc3c(c2)OCO3)S1 | 28.6 µM (inactive) | 26.7 | 18 µM (inactive) | 28.2 µM (inactive) | – | 30 µM (inactive) | 24.3 µM (inactive) | 30.6 µM (inactive) | 25.1 µM (inactive) | – | – | – | – | 30.1 µM (inactive) | 32.7 µM (inactive) | 33.7 µM (inactive) | 30.8 µM (inactive) | 36.7 µM (inactive) | 33.9 µM (inactive) | 21.5 µM (inactive)
3 | COC(=O)c1ccccc1C1CN=NC12Cc1c(C)cc(C)cc1C2=O (stereo not drawn) | > 100 µM (inactive) | > 100 | > 100 µM (inactive) | > 100 µM (inactive) | > 100 µM (inactive) | > 100 µM (inactive) | > 100 µM (inactive) | > 100 µM (inactive) | > 100 µM (inactive) | – | > 100 µM (inactive) | 8.34 µM (inactive) | – | > 100 µM (inactive) | > 100 µM (inactive) | > 100 µM (inactive) | > 100 µM (inactive) | > 100 µM (inactive) | > 100 µM (inactive) | > 100 µM (inactive)
4 | CN1CCc2c(sc3nc(Nc4ccccc4)n(N)c(=O)c23)C1 | 43.8 µM (inactive) | > 100 | > 100 µM (inactive) | > 100 µM (inactive) | – | – | – | > 100 µM (inactive) | > 100 µM (inactive) | – | 38.4 µM (inactive) | – | 83 µM (inactive) | > 100 µM (inactive) | 51.4 µM (inactive) | – | > 100 µM (inactive) | > 100 µM (inactive) | > 100 µM (inactive) | –
5 | Nc1nc(N)c2c(n1)NC(c1ccccc1)CC(/C=C/c1ccc(Cl)cc1)=N2 (stereo not drawn) | 3.95 µM (inactive) | 5.97 | 12.8 µM (inactive) | 9.23 µM (inactive) | 13.5 µM (inactive) | 15.7 µM (inactive) | 6.41 µM (inactive) | 12.2 µM (inactive) | 17.5 µM (inactive) | – | 11.6 µM (inactive) | 1.76 µM (inactive) | 3.12 µM (inactive) | 9.12 µM (inactive) | 3.48 µM (inactive) | – | 4.41 µM (inactive) | 8.89 µM (inactive) | 3.11 µM (inactive) | 3.94 µM (inactive)
6 | N=c1oc2cc(O)ccc2cc1C(=O)Nc1ccccn1 | 29.7 µM (inactive) | 51.5 | 92.9 µM (inactive) | 25.4 µM (inactive) | 47.2 µM (inactive) | 37.2 µM (inactive) | 33 µM (inactive) | > 100 µM (inactive) | 73.6 µM (inactive) | – | 32.4 µM (inactive) | 3.43 µM (inactive) | 33.7 µM (inactive) | 0.292 µM (active) | 14.9 µM (inactive) | 34.3 µM (inactive) | 62.8 µM (inactive) | 62.2 µM (inactive) | 16.4 µM (inactive) | > 100 µM (inactive)
7 | CCN1C/C(=C\c2ccc(Cl)cc2)c2[nH]c(=O)c(C#N)c(-c3ccc(Cl)cc3)c2C1 | > 100 µM (inactive) | > 100 | > 100 µM (inactive) | > 100 µM (inactive) | > 100 µM (inactive) | > 100 µM (inactive) | > 100 µM (inactive) | > 100 µM (inactive) | > 100 µM (inactive) | 18.4 µM (inactive) | > 100 µM (inactive) | – | > 100 µM (inactive) | – | > 100 µM (inactive) | > 100 µM (inactive) | > 100 µM (inactive) | > 100 µM (inactive) | > 100 µM (inactive) | > 100 µM (inactive)
8 | NCCNCCCCCCNC(=O)c1cccc2cc3ccccc3nc12 | 1.59 µM (inactive) | 12.6 | 2.67 µM (inactive) | 0.632 µM (active) | 3.94 µM (inactive) | – | 2.02 µM (inactive) | 1.7 µM (inactive) | 11.4 µM (inactive) | – | 2.01 µM (inactive) | 1.42 µM (inactive) | 2.01 µM (inactive) | 5.66 µM (inactive) | 1.1 µM (active) | 2.14 µM (inactive) | 0.871 µM (active) | 2.42 µM (inactive) | 1.36 µM (inactive) | 2.24 µM (inactive)
9 | O=C1CC(C(=O)N2CCCCC2)n2c(=O)n(-c3ccccc3)c(=O)n2C1 (stereo not drawn) | > 100 µM (inactive) | > 100 | > 100 µM (inactive) | > 100 µM (inactive) | > 100 µM (inactive) | > 100 µM (inactive) | – | > 100 µM (inactive) | > 100 µM (inactive) | – | > 100 µM (inactive) | > 100 µM (inactive) | – | > 100 µM (inactive) | > 100 µM (inactive) | > 100 µM (inactive) | > 100 µM (inactive) | – | > 100 µM (inactive) | –
